Target: T1, KRAS G12C 1-169, his-tagged protein, GDP-loaded (Homo sapiens, UniProt P01116, G12C)
T1 construct: KRAS G12C 1-169, his-tagged protein, GDP-loaded
Test: Biochemical assay: covalent modification of KRAS G12C measured by mass spectrometry (RapidFire/TOF or Q-Exactive)
Type: binding
Conditions: covalent binding to (modification of) KRAS G12C after a ten minute incubation period
Method: Test compounds were prepared as 10 mM stock solutions in DMSO (Fisher cat #BP-231-100). KRAS G12C 1-169, his-tagged protein, GDP-loaded is diluted to 2 μM or 0.5 μM in buffer (20 mM Hepes, 150 mM NaCl, 1 mM MgCl2). Compounds were tested for activity as follows:
Compounds were diluted to 50× final test concentration in DMSO in 96-well storage plates. Compound stock solutions were vortexed before use and observed carefully for any sign of precipitation. Dilutions are as follow: • For 100 μM final compound concentration, compounds were diluted to 5000 μM (5 μL 10 mM compound stock+5 μL DMSO and mixed well by pipetting. • For 30 μM final compound concentration, compounds were diluted to 1500 μM (3 μL 10 mM compound stock+17 μL DMSO) and mixed well by pipetting. • For 10 μM final compound concentration, compounds were diluted to 500 μM (2 μL 10 mM compound stock+38 μL DMSO) and mixed well by pipetting. 49 μL of the stock protein solution was added to each well of a 96-well PCR plate (Fisher cat #1423027). 1 μL of the diluted 50× compounds were added to appropriate wells in the PCR plate using 12-channel pipettor. Reactions were mixed carefully and thoroughly by pipetting up/down with a 200 μL multi-channel pipettor. The plate was sealed well with aluminum plate seal, and stored in drawer at room temperature for 10 minutes, 30 minutes, 2 hours or 24 hours. 5 μL of 2% formic acid (Fisher cat #A117) in de-ionized H2O was then added to each well followed by mixing with a pipette. The plate was then resealed with aluminum seal and stored on dry ice until analyzed as described below.
The above described assays were analyzed by mass spectrometry according to one of the following two procedures:
The MS instrument was set to positive polarity, 2 GHz resolution, and low mass (1700) mode and allowed to equilibrate for 30 minutes. The instrument was then calibrated, switched to acquisition mode and the appropriate method loaded.
After another 30 minute equilibration time, a blank batch (i.e., buffer) was run to ensure equipment is operating properly. The samples were thawed at 37° C. for 10 minutes, briefly centrifuged, and transfer to the bench top. Wells A1 and H12 were spiked with 1 μL 500 μM internal standard peptide, and the plates centrifuged at 2000×g for 5 minutes. The method was then run and masses of each individual well recorded.
The masses (for which integration data is desired) for each well were pasted into the platemap and exported from the analysis. Masses for the internal standards were exported as well. The data at 50 ppm was extracted for the +19 charge state, and identity of well A1 was assigned using the internal standard spike and integrated. Peak data was exported as a TOF list and the above steps were repeated individually, for the +20, 21, 22, 23, 24, and 25 charge states.
The masses and peak intensities of KRAS G12C protein species were measured using a Dionex RSLCnano system (Thermo Scientific) connected to a Q Exactive Plus mass spectrometer (Thermo Scientific).
[…] of sample was each loaded onto a Aeris™ 3.6 μm WIDEPORE C4 200 Å, LC Column 50×2.1 mm column maintained at 40° C. at a flow rate of 600 μL/min with 20% Solvent A (0.1% formic acid in H2O) and […] (0.1% formic acid in acetonitrile). The liquid chromatography conditions were 20% solvent B for 1 minute, 20% to 60% solvent B for 1.5 minutes, 60% to 90% solvent for 0.5 minute, 90% solvent B for 0.2 minute, 90% to 20% solvent B for 0.2 minute, and then equilibrated for 1.6 minutes before the following sample injection. The flow rate was maintained at 600 μL/min throughout the sample analysis.
The mass spectrometer was operated in profile mode at a resolution of 17500, 5 microscans, using 50 msec max injection time and an AGC target of 1×10^6, and a full mass range from 800-1850 m/z was recorded. The HCD trapping gas was optimized for maximum sensitivity for intact proteins. […]

Structure (SMILES)	Binding %
C=CC(=O)N1C[C@H](C)N(c2nc(OCC(C)(C)N(C)C)nc3c(F)c(-c4c(C)ccc5cnn(C)c45)c(Cl)cc23)C[C@H]1C [Compound 205, 1-((2R,5S)-4-(6-chloro-7-(1,6-dimethyl-1H-indazol-7-yl)-2-(2-(dimethylamino)-2-methylpropoxy)-8-fluoroquinazolin-4-yl)-2,5-dimethylpiperazin-1-yl)prop-2-en-1-one]	+++ (+++ indicates binding activity greater than 80%)
C=CC(=O)N1C[C@H](C)N(c2nc(OCCN3CCC(F)CC3)nc3c(F)c(-c4c(C)ccc5[nH]nc(C)c45)c(Cl)cc23)C[C@H]1C [Compound 163, 1-((2R,5S)-4-((S)-6-chloro-7-(3,5-dimethyl-1H-indazol-4-yl)-8-fluoro-2-(2-(4-fluoropiperidin-1-yl)ethoxy)quinazolin-4-yl)-2,5-dimethylpiperazin-1-yl)prop-2-en-1-one]	+ (+ indicates binding activity greater than 0% and up to 50%)
C=CC(=O)N1C[C@H](C)N(c2nc(N3CC(N(C)C)C3)nc3c(F)c(-c4cccc5[nH]nc(N)c45)c(Cl)cc23)C[C@H]1C [Compound 2, 1-((2R,5S)-4-(7-(3-amino-1H-indazol-4-yl)-6-chloro-2-(3-(dimethylamino)azetidin-1-yl)-8-fluoroquinazolin-4-yl)-2,5-dimethylpiperazin-1-yl)prop-2-en-1-one]	++ (++ indicates binding activity from 50 to 80%)
C=CC(=O)N1C[C@H](C)N(c2nc(OCCCN(C)C)nc3c(F)c(-c4c(C)ccc5cnn(C)c45)c(Cl)cc23)C[C@H]1C (atropisomer, axis not shown) [Compound 154, 1-((2R,5S)-4-((R)-6-chloro-7-(1,6-dimethyl-1H-indazol-7-yl)-2-(3-(dimethylamino)pro-poxy)-8-fluoroquinazolin-4-yl)-2,5-dimethylpiperazin-1-yl)prop-2-en-1-one]	+++ (+++ indicates binding activity greater than 80%)
C=CC(=O)N1C[C@H](C)N(c2nc(OCCN3CC(F)(F)C3)nc3c(F)c(-c4c(C)ccc5cnn(CC)c45)c(Cl)cc23)C[C@H]1C [Compound 123, 1-((2R,5S)-4-(6-chloro-2-(2-(3,3-difluoroazetidin-1-yl)ethoxy)-7-(1-ethyl-6-methyl-1H-indazol-7-yl)-8-fluoroquinazolin-4-yl)-2,5-dimethylpiperazin-1-yl)prop-2-en-1-one]	+++ (+++ indicates binding activity greater than 80%)
C=CC(=O)N1C[C@H](C)N(c2nc(N3CC(N(C)C)C3)nc3c(F)c(-c4c(C)ccc5[nH]nc(N)c45)c(Cl)cc23)C[C@H]1C (atropisomer, axis not shown) [Compound 89, 1-((2R,5S)-4-((R)-7-(3-amino-5-methyl-1H-indazol-4-yl)-6-chloro-2-(3-(dimethylamino)azetidin-1-yl)-8-fluoroquinazolin-4-yl)-2,5-dimethylpiperazin-1-yl)prop-2-en-1-one]	+++ (+++ indicates binding activity greater than 80%)
C=CC(=O)N1CCN(c2nc(N3CC(N(C)C)C3)nc3c(F)c(-c4c(C)ccc5[nH]nc(N)c45)c(Cl)cc23)C[C@H]1C [Compound 165, 1-((2R)-4-(7-(3-amino-5-methyl-1H-indazol-4-yl)-6-chloro-2-(3-(dimethylamino)azetidin-1-yl)-8-fluoroquinazolin-4-yl)-2-methylpiperazin-1-yl)prop-2-en-1-one]	+++ (+++ indicates binding activity greater than 80%)
C=CC(=O)N1C[C@H](C)N(c2nc(NCCC(=O)N3CCCC3)nc3c(F)c(-c4c(C)ccc5[nH]nc(N)c45)c(Cl)cc23)C[C@H]1C [Compound 60, 1-((2R,5S)-4-(7-(3-amino-5-methyl-1H-indazol-4-yl)-6-chloro-8-fluoro-2-(3-oxo-3-(pyrrolidin-1-yl)propylamino)quina-zolin-4-yl)-2,5-dimethylpiperazin-1-yl)prop-2-en-1-one]	+++ (+++ indicates binding activity greater than 80%)
C=CC(=O)N1C[C@H](C)N(c2nc(N3CC(N(C)C)C3)nc3c(F)c(-c4c(C)ccc5[nH]nc(C6CC6)c45)c(Cl)cc23)C[C@@H]1C (atropisomer, axis not shown) [Compound 254, 1-((2S,5S)-4-((S)-6-chloro-7-(3-cyclopropyl-5-methyl-1H-indazol-4-yl)-2-(3-(dimethylamino)azetidin-1-yl)-8-fluoroquinazolin-4-yl)-2,5-dimethylpiperazin-1-yl)prop-2-en-1-one]	+ (+ indicates binding activity greater than 0% and up to 50%)
C=CC(=O)N1C[C@H](C)N(c2nc(N3CC(N(C)C)C3)nc3c(F)c(-c4c(C)ccc5[nH]c(=O)[nH]c45)c(Cl)cc23)C[C@H]1C [Compound 82, 4-(4-((2S,5R)-4-acryloyl-2,5-dimethylpiperazin-1-yl)-6-chloro-2-(3-(dimethylamino)azetidin-1-yl)-8-fluoroquinazolin-7-yl)-5-methyl-1H-benzo[d]imidazol-2(3H)-one]	+++ (+++ indicates binding activity greater than 80%)
C=CC(=O)N1C[C@H](C)N(c2nc(OC[C@H]3CCCN3C)nc3c(F)c(-c4c(C)ccc5[nH]nc(C)c45)c(Cl)cc23)C[C@H]1C [Compound 179, 1-((2R,5S)-4-(6-chloro-7-(3,5-dimethyl-1H-indazol-4-yl)-8-fluoro-2-(((R)-1-methylpyrrolidin-2-yl)methoxy)quinazolin-4-yl)-2,5-dimethyllpiperazin-1-yl)prop-2-en-1-one]	+++ (+++ indicates binding activity greater than 80%)
C=CC(=O)N1C[C@H](C)N(c2nc(N3CC(N(C)C)C3)nc3c(F)c(-c4c(C)cnc5[nH]ncc45)c(Cl)cc23)C[C@H]1C [Compound 56, 1-((2R,5S)-4-(6-chloro-2-(3-(dimethylamino)azetidin-1-yl)-8-fluoro-7-(5-methyl-1H-pyrazolo[3,4-b]pyridin-4-yl)quinazolin-4-yl)-2,5-dimethylpiperazin-1-yl)prop-2-en-1-one]	+ (+ indicates binding activity greater than 0% and up to 50%)
C=CC(=O)N1C[C@H](C)N(c2nc(C#CCN(C)C)nc3c(F)c(-c4c(C)ccc5cnn(C)c45)c(Cl)cc23)C[C@H]1C [Compound 233, 1-((2R,5S)-4-(6-chloro-7-(1,6-dimethyl-1H-indazol-7-yl)-2-(3-(dimethylamino)prop-1-ynyl)-8-fluoroquinazolin-4-yl)-2,5-dimethylpiperazin-1-yl)prop-2-en-1-one]	+++ (+++ indicates binding activity greater than 80%)
C=CC(=O)N1C[C@H](C)N(c2nc(OCCN3CCOCC3)nc3c(F)c(-c4c(C)ccc5onc(N)c45)c(Cl)cc23)C[C@H]1C [Compound 81, 1-((2R,5S)-4-(7-(3-amino-5-methylbenzo[d]isoxazol-4-yl)-6-chloro-8-fluoro-2-(2-morpholinoethoxy)quina-zolin-4-yl)-2,5-dimethylpiperazin-1-yl)prop-2-en-1-one]	++ (++ indicates binding activity from 50 to 80%)
C=CC(=O)N1C[C@H](C)N(c2nc(OCCN3CC(F)(F)C3)nc3c(F)c(-c4c(C)ccc5cnn(C)c45)c(Cl)cc23)C[C@H]1C (atropisomer, axis not shown) [Compound 146, 1-((2R,5S)-4-((S)-6-chloro-2-(2-(3,3-difluoroazetidin-1-yl)ethoxy)-7-(1,6-dimethyl-1H-indazol-7-yl)-8-fluoroquinazolin-4-yl)-2,5-dimethylpiperazin-1-yl)prop-2-en-1-one]	+ (+ indicates binding activity greater than 0% and up to 50%)
